From patent publication US5094783A, “Retinoid compounds” (UAB Research Foundation, priority 1990, dated 1992)

Tests used:
[1] = biological target: cellular retinoic acid binding protein (CRABP) from chick embryo skin; experiment: CRABP binding assay, I50 (dextran-coated charcoal); settings: 50% inhibition of binding of 100 pmoles [3H] retinoic acid to CRABP, chick embryo skin extract (1 mg protein); X=CO2H
Procedure: A standard in vitro cellular retinoic acid binding protein (CRABP) assay was also conducted on the retinoids. The CRABP binding study measured the ability of retinoids to compete for the retinoic acid binding site on CRABP, also a good indicator of retinoid potency as a chemopreventive agent.
(§1) Aliquots (2 mg protein) of chick skin extracts were incubated with 300 pmoles of [^3 H] retinoic acid in the presence or absence of 100-fold molar excesses of the test compounds. The 2S CRABP peaks were determined from the radioactivity profiles obtained after sedimentation through 5 to 20% sucrose density gradients at 180,000×g for 18 hours (Sani et al., supra). […] Free radioactive retinoid was removed by absorption on dextran-coated charcoal. The I50 values of the test compounds were derived from the semilog plots of their molar concentrations versus the specifically bound [^3 H] retinoic acid to CRABP at the different concentrations of the test retinoids.

[2] = test system: ornithine decarboxylase (ODC) induced by TPA in mouse epidermis; experiment: In vivo ODC assay: inhibition of TPA-induced ornithine decarboxylase activity in mouse epidermis; settings: TPA-induced ODC activity in epidermis of CD-1 mice, single topical application of retinoid 30 to 60 min before TPA, skins collected 5 h after TPA; values normalized to TPA control of 10; X=CO2H
Procedure: An in vivo ODC assay was conducted using four configurational isomers of retinoid 7 with X=CO2 H to study their bioactivities with respect to prevention of tumors. The ODC assay measured the inhibition by retinoids of the induction of ornithine decarboxylase in mouse epidermis by phorbol ester (TPA), an indicator of retinoid potency as a chemopreventive agent.
A single application of TPA was made to the shaved backs of CD-1 mice 30 to 60 minutes after a single application of the test retinoid. Five hours after the application of TPA, the exposed skins from the back of the three animals in each group were collected, and the epidermal extracts prepared from each animal were pooled and assayed. In order to improve the counting efficiency of radio-labeled product formed in the assay, the specific activity of ^14 C-ornithine was increased five-fold; the assay was terminated by the addition of citric acid at 45 minutes to ensure linear kinetics.

[3] = test system: chick embryo skin CRABP; experiment: CRABP competition by sucrose density gradient sedimentation, 100-fold excess of retinoid; assay type: binding; settings: 100-fold molar excess of test compound, 300 pmol [3H] retinoic acid, FIG. 1
Procedure: as §1

[4] = test system: mouse skin papilloma; experiment: Mouse papilloma assay (tumor formation after DMBA initiation); assay type: in vivo; settings: initiation with DMBA, X=CO2H

IC50 [1] [nM] | inhibition of [3H] retinoic acid-binding to CRABP (relative binding affinity as compared to retinoic acid) [3] [%] | SMILES | ODC Assay (nmol CO2/30 min./mg protein) [2] | tumor production, % of controls [4]
4900 | 0 | CC1=C(C(C)C)/C(=C/C(C)=C\C=C\C(C)=C/C(=O)O)CCC1 [(9Z,13Z)-7] | > 100 nmol CO2/30 min./mg protein | –
400 | 100 | CC1=C(C(C)C)/C(=C/C(C)=C/C=C/C(C)=C/C(=O)O)CCC1 [(all E)-7] | 0.5 nmol CO2/30 min./mg protein | 20 % of controls
500 | 70 | CC1=C(C(C)C)/C(=C/C(C)=C/C=C/C(C)=C\C(=O)O)CCC1 [(13Z)-7] | 1.0 nmol CO2/30 min./mg protein | –
2800 | 0 | CC1=C(C(C)C)/C(=C/C(C)=C\C=C\C(C)=C\C(=O)O)CCC1 [(9Z)-7] | > 100 nmol CO2/30 min./mg protein | –

SMILES | IC50 [1] [nM] | inhibition of [3H] retinoic acid-binding to CRABP (relative binding affinity as compared to retinoic acid) [3] [%] | ODC Assay (nmol CO2/30 min./mg protein) [2] | tumor production, % of controls [4]
CC1=C(/C=C/C(C)=C/C=C/C(C)=C/C(=O)O)C(C)(C)CCC1 [all-E retinoic acid, reference compound] | 900 | 100 | 0.5 nmol CO2/30 min./mg protein | 11 % of controls
